Measured values: patent US20110014204A1, “Cancer Chemoprevention Strategy Based on Loss of Imprinting of IGF2” (priority 2006, published 2011)

Experiments:
[1] = system: aberrant crypt foci (ACF); assay: Azoxymethane (AOM)-induced aberrant crypt foci (ACF) in LOI(+) and LOI(−) mice, NVP-AEW541 by oral gavage; format: in vivo; settings: for ACF per colon: AOM intraperitoneally weekly for 3 weeks, sacrificed at 5 weeks, no inhibitor; for AOM-induced ACF formation: AOM plus NVP-AEW541 50 mg/kg oral gavage for 6 weeks; for decrease in ACFs normalized to colon surface area: AOM, treated with the inhibitor
Procedure: ACF formation in the colon was induced by AOM intraperitoneal injection, and treatment with NVP-AEW541 was by gastric gavage. Each ACF was formed of 1-4 aberrant crypts, and the number of ACF (# of ACF), the number of total aberrant crypts (# of AC), and the average number of aberrant crypts per ACF were measured.
(A) ACF formation in the colon was induced by AOM i.p. injection, and treatment with NVP-AEW541 was by gastric […]. Each ACF was formed of […] aberrant crypts, and the number of ACF (# of ACF), the number of total aberrant crypts (# of AC), and the average number of aberrant crypts per ACF were measured. LOI(+) AOM mice (dark gray bars), LOI(−) AOM mice (black bars), LOI(+) AOM NVP mice (light gray bars), LOI(−) AOM NVP mice (gray bars). (B) The number of ACF and the number of total aberrant crypts (AC) were corrected by colon surface area (cm^2).
7 week old LOI(+) and LOI(−) littermate controls were treated with AOM at 10 mg/kg body weight intraperitoneally once per week for three weeks, and euthanized 5 weeks after the first dose of AOM. The entire colon was resected from mice after laparotomy, flushed with PBS, filled with 10% buffered formalin (Sigma) for one minute, opened longitudinally, fixed flat between filter paper in formalin at 4° C. overnight, rinsed with PBS, and stained with 0.2% methylene blue in saline. The number of ACF per colon and the number of aberrant crypts per ACF were scored under a light microscopy as previously described Bird, Cancer Lett (1987) 37:147-151). NVP-AEW541 (50 mg/kg) was administered by oral gavage, beginning 1 week before AOM treatment, and NVP-AEW541 was administered 7 days/week, twice a day for 5 weekdays and once a day for 2 weekend days, for 6 weeks until sacrifice.
Because of known strain variation in progression of these lesions, littermate controls were treated with and without LOI, in which the dams were heterozygous for a deletion of the H19 differentially methylated region (DMR); inheritance of a maternal allele lacking the DMR leads to activation of the normally silent allele of Igf2 [LOI(+)], while inheritance of a wild type maternal allele leads to normal imprinting [LOI(−)]. Eight LOI(+) and 14 LOI(−) mice were given AOM intraperitoneally weekly for 3 weeks, sacrificed at 5 weeks after the first dose, and ACF were scored by the method of Bird (1987). Histologic examination of colons from AOM-treated mice confirmed the presence of ACF, with hyperproliferative features including increased mitosis, crypt enlargement and crypt disarray (FIG. 12). […] An additional intriguing finding in AOM-treated LOI(+) mice was cystically dilated crypts lined by enlarged cells with atypical nuclei and that contained necrotic debris, that were reminiscent of sessile serrated adenomas (SSAs) seen in the human colon (FIG. 12). SSAs also show crypt dilatation in association with cytologic atypia and are currently of immense interest for their recently recognized association with colorectal cancer (Snover et al., Am J Clin Pathol (2005) 124:380-391). It will thus be of interest to determine whether SSAs are associated with LOI in the human population.
An additional 9 LOI(+) mice and 9 LOI(−) control littermates were similarly exposed to AOM, adding treatment with NVP-AEW541, an IGF1R inhibitor, at a dose of 50 mg/kg by oral gavage daily for 6 weeks (twice daily except daily on weekends). […] Thus, LOI of lgf2 increases the sensitivity to AOM through an IGF1R-dependent mechanism.
Eight LOI(+) and 14 LOI(−) mice were given AOM intraperitoneally weekly for 3 weeks, sacrificed at 5 weeks after the first dose, and ACFs were scored as described (Bird (1987)). Histologic examination of colons from AOM-treated mice confirmed the presence of ACFs, with hyperproliferative features including increased mitosis, crypt enlargement and crypt disarray (FIG. 14A, B). […]

IGF1 receptor = molecular target: T1, IGF1 receptor (Mus musculus, UniProt Q60751); assay: Western blot of IGF2 signaling at the IGF1 receptor in NIH 3T3 cells with varying NVP-AEW541; format: cell-based; settings: varying concentrations of NVP-AEW541, with or without IGF2
T1 construct: endogenous in cells; host or cells: NIH 3T3 cells
Procedure: NIH 3T3 cells were passaged every 3 days and maintained with low glucose DMEM plus 10% CBS in 5% CO2. The day prior to transfection cells were trypinsized and seeded into PLL-coated glass bottom Mattek dishes. Cells typically reached about 70% confluence the next day, when they were transfected with eGFP-Akt-PH plasmid with Fugene lipid following the manufacturer's instructions. 8 hours after transfection, cells were starved in 0.2% CBS in low glucose DMEM (with no antibiotics) for at least 12 hours. Western blots were performed with the antibodies shown, and varying concentrations of NVP-AEW541, with or without IGF2.

Akt/PKB = assay: Microfluidic chamber single cell immunocytochemistry of Akt/PKB activation (phospho-Akt Ser 473) in LOI(+) and LOI(−) MEF cells; format: cell-based, mouse; settings: for inhibition of IGF2-triggered Akt activation: 60 min coincubation with 400 ng/ml IGF2 and 3 μM NVP-AEW541
Procedure: (A) Akt/PKB activation was assayed by single cell immunocytochemistry with an antibody to phosphorylated Akt (Ser 473), in a monolithic 2-layer PDMS chip sealed with a glass coverslip, with defined media delivery controlled by a multiplexed system of valves. Live LOI(+) and LOI(−) MEF cells were stimulated within the microfluidic chips with varying doses of IGF2, with measurements at multiple time points at each IGF2 concentration. […] For each cell type, IGF2 concentration, and time point, at least 200 individual cellular measurements were obtained by digital imaging and analysis. (B) Inhibition of Akt activation by NVP-AEW541. The cells were assayed as in (A) at 60 min after coincubation with 400 ng/ml IGF2 and 3 μM NVP-AEW541 and compared with the unstimulated control. Each bar is based on measurements of >400 cells. Asterisk indicates statistical difference vs LOI(+) control (t test, P<0.001) (C) Single cell analysis of ERK activation by IGF2 in LOI(+) and LOI(−) MEF cells. Erk activation was assayed by single immunocytochemistry within microfluidic chips using an antibody to phosphorylated Erk2 from Upstate (Charlottesville, Va.). LOI(+) cells (gray) and LOI(−) cells (black) were exposed to 400 ng/ml IGF2 for indicated times. […] Error bars represent SD. Standard error bars are completely subsumed by the symbols on this scale. (D) Gene expression levels in mouse embryonic fibroblasts. Quantitative real-time PCR was performed on LOI(+) and LOI(−) MEF cells, with expression normalized to transferring receptor expression. The expression level in LOI(+) samples (black) relative to LOI(−) samples (gray) is shown. The bars indicate standard error.
The immunostaining automation device consists of a monolithic 2-layer PDMS chip sealed with a glass coverslip, fabricated using techniques described previously (Unger et al., Science 288 (2000) 288:113-116). Multiplexing valves were actuated by pressure lines connected to off-device solenoid valves. The chip architecture, performance and validation are all described in a separate manuscript submitted for publication. The glass substrate of the cell culture chamber was coated by introducing 0.1% gelatin (Sigma) into the device for at least 30 minutes, then cells were introduced and allowed to attach for 3 hours. IGF2 (StemCell Technologies) dissolved in cell media was introduced to each chamber at different times so that the end of all stimulation periods coincided. To end the experiment, ice-cold PBS (Invitrogen) was introduced into all chambers followed immediately by 4% paraformaldehyde (Electron Microscopy Systems) for 20 minutes. Cells were permeabilized with 0.1% Triton X-100 (Sigma) for 5 min and blocked with 10% goat serum (Sigma), with PBS washes in between. […] Using custom MATLAB (Mathworks) programs, the images were […], stitched together, and quantified. […] For each cell type and time point, 200-300 cells were analyzed in this manner to ensure statistical significance.
Since both the endogenous IGF2 and IGF2 used in the MEF experiments are susceptible to IGF2 binding protein (IBP)-based inactivation, the dose of an IBP-resistant IGF2 variant was determined producing similar levels of Akt activation. […]

IGF1R [2] = molecular target: T2, IGF1R (Homo sapiens, UniProt P08069); settings: cited from earlier work
Target sequence in this assay (P08069 31-1367, species assumed): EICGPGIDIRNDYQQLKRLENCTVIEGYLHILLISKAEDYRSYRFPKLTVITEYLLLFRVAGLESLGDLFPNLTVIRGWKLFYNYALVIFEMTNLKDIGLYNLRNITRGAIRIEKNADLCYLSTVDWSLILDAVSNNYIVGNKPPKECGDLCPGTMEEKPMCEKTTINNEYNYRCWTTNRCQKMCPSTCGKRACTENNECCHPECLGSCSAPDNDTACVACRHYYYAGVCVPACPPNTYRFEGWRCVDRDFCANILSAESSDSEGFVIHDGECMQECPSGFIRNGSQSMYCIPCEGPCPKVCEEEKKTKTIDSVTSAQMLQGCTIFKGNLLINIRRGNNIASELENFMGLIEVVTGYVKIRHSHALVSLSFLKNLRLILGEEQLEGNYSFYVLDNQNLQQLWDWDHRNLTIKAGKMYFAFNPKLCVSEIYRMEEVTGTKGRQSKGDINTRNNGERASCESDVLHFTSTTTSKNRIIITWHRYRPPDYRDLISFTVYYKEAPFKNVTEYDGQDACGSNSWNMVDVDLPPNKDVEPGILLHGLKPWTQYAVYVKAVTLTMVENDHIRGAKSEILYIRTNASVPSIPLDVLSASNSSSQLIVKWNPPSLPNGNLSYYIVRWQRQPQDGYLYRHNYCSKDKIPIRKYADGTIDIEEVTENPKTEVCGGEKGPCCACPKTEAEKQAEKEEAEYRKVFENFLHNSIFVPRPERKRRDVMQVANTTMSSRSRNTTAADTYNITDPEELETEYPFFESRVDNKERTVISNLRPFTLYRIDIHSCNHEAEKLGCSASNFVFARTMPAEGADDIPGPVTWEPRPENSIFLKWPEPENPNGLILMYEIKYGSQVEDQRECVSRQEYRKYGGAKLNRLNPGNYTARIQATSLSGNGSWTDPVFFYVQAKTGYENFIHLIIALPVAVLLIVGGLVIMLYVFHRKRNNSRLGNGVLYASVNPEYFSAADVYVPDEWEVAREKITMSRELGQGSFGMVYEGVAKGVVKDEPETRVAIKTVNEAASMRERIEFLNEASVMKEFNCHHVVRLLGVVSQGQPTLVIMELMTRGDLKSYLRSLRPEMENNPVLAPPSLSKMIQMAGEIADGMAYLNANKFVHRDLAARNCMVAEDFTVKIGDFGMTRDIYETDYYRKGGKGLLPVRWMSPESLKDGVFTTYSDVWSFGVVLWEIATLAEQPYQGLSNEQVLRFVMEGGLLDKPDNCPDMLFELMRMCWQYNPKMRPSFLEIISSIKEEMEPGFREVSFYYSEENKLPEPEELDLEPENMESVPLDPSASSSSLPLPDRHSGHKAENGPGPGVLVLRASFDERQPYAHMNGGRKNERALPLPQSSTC

mouse ES cells = assay: IGF2 stimulation of mouse ES cells, gene expression by real-time RT-PCR, with or without NVP-AEW541; format: cell-based; settings: for increase in Cdc6 gene expression: 800 ng/ml mouse Igf2 recombinant protein
Procedure: (§1) Mouse ES cells were cultured in defined medium and treated with 800 ng/ml mouse lgf2 protein. Gene expression was analyzed by real-time RT-PCR and normalized to β-actin. Shown is the expression level without (black boxes) and with (gray boxes) the IGF1R inhibitor 3 μM NVP-AEW541 (a pyrrolo-2,3d-pyrimidine), normalized to time 0. The bars indicate standard error.
as §1, with “(pink” for “(gray”, “IGF1R R” for “IGF1R”, “NVP-AEW541,” for “NVP-AEW541 (a pyrrolo-2,3d-pyrimidine),”, “bar represents” for “bars indicate”
For IGF2 stimulation, wild type ES cells were isolated as described above, and cultured in ESGRO Complete Basal Medium with 800 ng/ml of mouse Igf2 recombinant protein (StemCell Technologies), with or without 3 μM NVP-AEW541 (Novartis). Cells were washed with PBS twice and RNA was extracted using the RNeasy Kit (QIAGEN) at Oh, 3 h, 6 h, 10 h, and 24 h. Gene expression was assayed by real-time quantitative RT-PCR as described above.
It remained theoretically possible that the observed difference in gene expression simply reflected the over-representation of progenitor cells within the intestinal crypts, rather than a change in cellular gene expression per se. To confirm the latter, mouse embryonic stem (ES) cells were derived and plated in ESGRO Complete Clonal Grade defined medium (Chemicon), which contains no IGF2 and allows growth of undifferentiated ES cells without a feeder layer, which was done with or without 800 ng/ml of mouse Igf2 recombinant protein (StemCell Technologies). Consistent with the microarray experiments, Igf2 induced a 50% and 56% increase in Cdc6 gene expression at 3 and 6 hours, respectively, and 40% and 25% at 10 and 24 hours, respectively (FIG. 3).

intestinal crypts = assay: Proliferation-related gene expression in laser capture microdissected intestinal crypts of mice treated with NVP-AEW541 for 3 weeks (real-time PCR); format: in vivo; settings: mice treated with NVP-AEW541 50 mg/kg oral gavage for 3 weeks; LOI(−) normalized to 1.0
Procedure: Qunatitative real-time PCR was performed on laser capture microdissected intestinal crypts from 12 LOI(+) and 9 LOI(−) mice. Expression was normalized to β-actin, and the expression level in LOI(+) samples (gray) relative to LOI(−) samples (black) is shown. The bars indicate standard error. […] Analysis was by quantitative real-time PCR of laser capture microdissected crypts from four LOI(+) mice and four LOI(−) mice treated with NVP-AEW541 for 3 weeks. LOI(+) (gray bars), LOI(−) mice (black bars normalized to 1.0).
For validation, LCM was performed on an additional 12 LOI(+) and 9 LOI(−) mice, isolating approximately 800 crypts yielding more than 300 ng of total RNA from each. RNA samples were reverse-transcribed using SUPERSCRIPT II (Invitrogen), and quantified using SYBR Green PCR Core Reagents and an ABI Prism 7700 Sequence Detection System (Applied Biosystems), and normalized to β-actin.
Four LOI(+) and four LOI(−) mice were also treated with NVP-AEW541 to inhibit IGF2 signaling, at a dose of 50 mg/kg by oral gavage daily for 3 weeks (twice daily except daily on weekends). NVP-AEW541 is an ATP-competitive inhibitor of IGF-IR which blocks signaling at the IGF1 receptor, which mediates IGF2 signaling (Garcia-Echeverria et al., Cancer Cell (2004) 5:231-239). […] Thus, LOI-induced changes in proliferation-related gene expression were mediated, at least in part, through IGF2 signaling itself.

IGF1R [3] = molecular target: T2, IGF1R; settings: previously estimated; read-out: kD of IGF1R for IGF2; cited from earlier work
Target sequence in this assay (P08069 31-736 limits assumed, species assumed): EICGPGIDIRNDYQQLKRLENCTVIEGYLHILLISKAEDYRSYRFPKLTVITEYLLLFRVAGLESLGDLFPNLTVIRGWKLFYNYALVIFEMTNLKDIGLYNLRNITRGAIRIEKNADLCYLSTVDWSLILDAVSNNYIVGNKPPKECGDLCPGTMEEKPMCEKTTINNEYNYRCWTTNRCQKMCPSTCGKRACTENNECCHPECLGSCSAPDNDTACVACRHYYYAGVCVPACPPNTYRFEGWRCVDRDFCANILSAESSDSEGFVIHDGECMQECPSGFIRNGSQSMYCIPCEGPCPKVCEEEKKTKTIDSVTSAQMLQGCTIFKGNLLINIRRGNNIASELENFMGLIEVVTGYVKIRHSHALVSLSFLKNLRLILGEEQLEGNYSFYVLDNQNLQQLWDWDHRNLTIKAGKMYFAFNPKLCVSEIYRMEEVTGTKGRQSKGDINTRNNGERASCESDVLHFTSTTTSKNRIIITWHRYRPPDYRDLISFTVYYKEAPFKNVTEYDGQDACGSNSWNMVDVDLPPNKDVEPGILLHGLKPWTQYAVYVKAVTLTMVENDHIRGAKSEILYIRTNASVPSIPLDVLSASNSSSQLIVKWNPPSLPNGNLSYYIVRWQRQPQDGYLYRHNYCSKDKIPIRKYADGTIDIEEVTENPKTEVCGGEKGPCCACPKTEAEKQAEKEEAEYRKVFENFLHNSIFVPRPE
Target sequence in this assay (P08069 741-1367 partner limits assumed, species assumed): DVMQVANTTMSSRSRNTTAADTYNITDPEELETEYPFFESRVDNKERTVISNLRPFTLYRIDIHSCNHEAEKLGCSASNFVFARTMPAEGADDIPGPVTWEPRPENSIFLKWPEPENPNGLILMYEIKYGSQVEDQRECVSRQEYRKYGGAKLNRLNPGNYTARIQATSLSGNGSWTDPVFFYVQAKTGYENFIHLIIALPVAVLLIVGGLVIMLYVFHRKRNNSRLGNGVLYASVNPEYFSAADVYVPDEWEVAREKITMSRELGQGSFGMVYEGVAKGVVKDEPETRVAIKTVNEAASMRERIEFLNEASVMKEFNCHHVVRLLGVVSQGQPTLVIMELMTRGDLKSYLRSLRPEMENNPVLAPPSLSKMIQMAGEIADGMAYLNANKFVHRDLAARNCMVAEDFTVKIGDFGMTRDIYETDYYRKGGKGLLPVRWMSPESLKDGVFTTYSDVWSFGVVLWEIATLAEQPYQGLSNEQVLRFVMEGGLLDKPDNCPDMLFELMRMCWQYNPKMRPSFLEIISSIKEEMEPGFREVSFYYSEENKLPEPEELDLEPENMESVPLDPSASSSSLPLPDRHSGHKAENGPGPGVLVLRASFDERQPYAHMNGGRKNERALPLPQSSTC

T1 sequence (Q60751 31-1373): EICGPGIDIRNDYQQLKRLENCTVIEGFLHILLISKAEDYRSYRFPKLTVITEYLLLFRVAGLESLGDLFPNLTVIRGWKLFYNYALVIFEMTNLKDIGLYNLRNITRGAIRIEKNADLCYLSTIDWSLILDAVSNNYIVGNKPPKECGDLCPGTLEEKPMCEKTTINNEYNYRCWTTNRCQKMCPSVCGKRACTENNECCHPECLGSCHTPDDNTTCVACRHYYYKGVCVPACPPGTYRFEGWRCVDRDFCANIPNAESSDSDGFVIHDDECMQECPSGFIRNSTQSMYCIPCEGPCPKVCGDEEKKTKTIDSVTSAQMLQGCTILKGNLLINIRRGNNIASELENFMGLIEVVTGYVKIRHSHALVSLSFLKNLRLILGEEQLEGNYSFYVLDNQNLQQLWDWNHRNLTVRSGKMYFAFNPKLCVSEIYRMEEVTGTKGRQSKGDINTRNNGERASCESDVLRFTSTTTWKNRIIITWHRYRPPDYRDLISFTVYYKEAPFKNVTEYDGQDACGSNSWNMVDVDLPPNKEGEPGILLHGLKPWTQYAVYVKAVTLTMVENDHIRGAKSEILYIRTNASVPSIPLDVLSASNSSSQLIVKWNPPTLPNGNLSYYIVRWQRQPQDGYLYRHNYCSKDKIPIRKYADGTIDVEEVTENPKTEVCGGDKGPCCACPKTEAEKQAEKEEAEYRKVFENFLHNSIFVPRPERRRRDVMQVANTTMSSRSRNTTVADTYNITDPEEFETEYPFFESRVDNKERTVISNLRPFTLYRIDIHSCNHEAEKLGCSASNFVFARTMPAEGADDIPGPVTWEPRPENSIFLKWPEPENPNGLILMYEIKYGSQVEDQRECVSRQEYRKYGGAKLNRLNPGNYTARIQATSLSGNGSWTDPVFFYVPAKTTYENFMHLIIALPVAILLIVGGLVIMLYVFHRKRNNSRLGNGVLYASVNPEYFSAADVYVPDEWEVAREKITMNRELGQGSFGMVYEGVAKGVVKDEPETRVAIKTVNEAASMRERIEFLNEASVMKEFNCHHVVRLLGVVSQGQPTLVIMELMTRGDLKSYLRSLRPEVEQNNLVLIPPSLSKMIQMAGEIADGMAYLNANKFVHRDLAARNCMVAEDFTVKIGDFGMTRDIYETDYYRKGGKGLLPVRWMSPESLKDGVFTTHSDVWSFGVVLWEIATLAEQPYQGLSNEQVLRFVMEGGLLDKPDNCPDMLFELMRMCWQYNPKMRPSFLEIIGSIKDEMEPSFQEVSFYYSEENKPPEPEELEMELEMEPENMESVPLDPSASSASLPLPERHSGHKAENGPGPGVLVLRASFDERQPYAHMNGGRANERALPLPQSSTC

CN=[N+](C)[O-] [AOM, azoxymethane]
ACF per colon ([1]; LOI(+) mice): 19.8±2.2 ACF per colon | ACF per colon ([1]; LOI(−) mice): 12.4±0.9 ACF per colon

Nc1ncnc2c1c(-c1cccc(OCc3ccccc3)c1)cn2C1CC(CN2CCC2)C1 (stereo not shown) [NVP-AEW541]
inhibition of IGF2 signaling at the IGF1 receptor (IGF1 receptor): blocks IGF2 at IGF1R | AOM-induced ACF formation ([1]; LOI(+) mice): 7.8±1.2 ACF per colon | decrease in ACFs normalized to colon surface area ([1]; LOI(+) mice): 56% | AOM-induced ACF formation ([1]; LOI(−) mice): 11.3±1.6 ACF per colon | decrease in ACFs normalized to colon surface area ([1]; LOI(−) mice): no decrease | inhibition of IGF2-triggered Akt activation (Akt/PKB; LOI(+) MEF cells): significantly below the baseline | inhibition of IGF2-triggered Akt activation (Akt/PKB; LOI(−) MEF cells): inhibited to the baseline levels | selectivity for IGF1R over the insulin receptor (IGF1R [2]): specifically inhibits IGF1R over the related insulin receptor | effect on IGF2-induced increased expression of Cdc6 (mouse ES cells; 800 ng/ml Igf2, 3 μM NVP-AEW541, all time points): completely abrogated | Ccne1 expression in LOI(+) crypts relative to LOI(−) crypts (intestinal crypts): 0.57 fold | Cdc6 expression in LOI(+) crypts relative to LOI(−) crypts (intestinal crypts): 0.49 fold | Chaf1a expression in LOI(+) crypts relative to LOI(−) crypts (intestinal crypts): 0.42 fold | Lig1 expression in LOI(+) crypts relative to LOI(−) crypts (intestinal crypts): 0.42 fold | Mcm3 expression in LOI(+) crypts relative to LOI(−) crypts (intestinal crypts): 0.65 fold | Mcm5 expression in LOI(+) crypts relative to LOI(−) crypts (intestinal crypts): 0.48 fold

insulin-like growth factor 2 [IGF2]
Kd (IGF1R [3]): 1 to 10 nM | Akt signal at higher IGF2 doses (Akt/PKB; LOI(+) MEF cells, IGF2 doses above 400 ng/ml): progressively more transient and less pronounced | duration of sustained Akt activation (Akt/PKB; LOI(+) MEF cells, lowest IGF2 concentration 400 ng/ml): > 120 min | return of Akt activation to the baseline (Akt/PKB; LOI(−) MEF cells, IGF2 400, 800 and 1600 ng/ml): ≤ 90 min | increase in Cdc6 gene expression (mouse ES cells; 3 hours): 50% | increase in Cdc6 gene expression (mouse ES cells; 6 hours): 56% | increase in Cdc6 gene expression (mouse ES cells; 10 hours): 40% | increase in Cdc6 gene expression (mouse ES cells; 24 hours): 25%
